From patent US6586368B1, “Condensed heterocylic compounds and herbicides containing them” (Sumitomo Chemical Company, Limited, priority 1998, dated 2003)

How the values were obtained:
Type in all cases: in vivo
[1] = tested on: velvetleaf (Abutilon theophrasti); test: Test Example 2: foliage treatment of velvetleaf in pots, herbicidal activity; details: emulsifiable concentrate sprayed over the foliage, dosage of 8000 g/ha, 1000 liters per hectare, plants 14 days after seeding, examined after 5 days in greenhouse
Description: Cylindrical plastic pots of 10 cm in diameter and 10 cm in depth were filled with soil, seeded with velvetleaf (Abutilon theophrasti), and kept in a greenhouse for 14 days. After that, according to Formulation Example 2, compound 2-2001 or 3-2001 was formulated into an emulsifiable concentrate, which was diluted in a prescribed amount with water containing a spreading agent and then uniformly sprayed over the foliage of the plants with a sprayer at a ratio of 1000 liters per hectare. The pots were further kept in the greenhouse for 5 days and examined for herbicidal activity.

[2] = tested on: velvetleaf (Abutilon theophrasti); test: Test Example 1: foliage treatment of velvetleaf in pots, herbicidal activity; details: emulsifiable concentrate sprayed over the foliage, dosage of 2000 g/ha, 1000 liters per hectare, plants 14 days after seeding, examined after 8 days in greenhouse
[3] = tested on: barnyardgrass (Echinochloa oryzicola); test: Test Example 4: flooded paddy field treatment of barnyardgrass in pots, herbicidal activity; details: emulsifiable concentrate applied on the water surface of flooded pots, dosage of 1000 g/ha, 50 liters per are, plants 12 days after seeding, examined after 9 days in greenhouse
[4] = tested on: velvetleaf (Abutilon theophrasti); test: Test Example 3: soil surface treatment, velvetleaf seeded in pots, herbicidal activity; details: emulsifiable concentrate sprayed over the surface of the soil after seeding, dosage of 2000 g/ha, 1000 liters per hectare, examined after 9 days in greenhouse

Row | SMILES | herbicidal activity: kill of velvetleaf [1] | herbicidal activity: growth of velvetleaf [2] | herbicidal activity: growth of barnyardgrass [3] | herbicidal activity: germination of velvetleaf [4]
1 | O=C1C2=C(CCCC2)C(=O)N1n1ccc2ccccc21 [Compound 2-2001] | completely killed |  |  | 
2 | O=c1cc(C(F)(F)F)ncn1-n1ccc2ccccc21 [Compound 3-2001] | completely killed |  |  | 
3 | CCOC(=O)C(C)Sc1cc2c(-n3c(=O)cc(C(F)(F)F)n(C)c3=O)coc2cc1[N+](=O)[O-] (centres unmarked) [Compound 1-246, Ethyl 2-({3-[3-methyl-2,6-dioxo-4-(trifluoromethyl)-1,2,3,6-tetrahydropyrimidin-1-yl]-6-nitrobenzo[b]furan-5-yl}thio)propanoate] |  | completely inhibited the growth | completely inhibited the growth | completely inhibited the germination
4 | Cn1c(C(F)(F)F)cc(=O)n(-c2coc3cc([N+](=O)[O-])ccc23)c1=O [Compound 1-282] |  | completely inhibited the growth | completely inhibited the growth | completely inhibited the germination
5 | Cn1c(C(F)(F)F)cc(=O)n(-c2coc3ccc(C(N)=O)cc23)c1=O [Compound 1-293] |  | completely inhibited the growth | completely inhibited the growth | completely inhibited the germination
6 | CCOC(=O)C=Cc1cc(Cl)c2occ(-n3c(=O)cc(C(F)(F)F)n(C)c3=O)c2c1 [Compound 1-378] |  | completely inhibited the growth | completely inhibited the growth | completely inhibited the germination
7 | Cn1c(C(F)(F)F)cc(=O)n(-c2coc3ccccc23)c1=O [Compound 1-1] |  | completely inhibited the growth | completely inhibited the growth | completely inhibited the germination
